Holding throughout (assay): preemergence treatment in the greenhouse, % damage
The subject of one data set is Echin. c.g. The format is in vivo. An excerpt:
(§1) The vessels employed were plastic flowerpots having a volume of 300 cm^3; the substrate was a sandy loam containing about 1.5% humus. The seeds of the test plants (see Table 1) were sown shallow, and separated according to species. In the case of Cyperus esculentus, pregerminated tubers were planted. In the preemergence treatment, the active ingredients were then immediately applied to the surface of the soil. They were suspended or emulsified in water as the vehicle, and sprayed through atomizing nozzles. After the agents had been applied, the vessels were lightly sprinkler-irrigated to set germination and growth going, and to activate the chemical agents. The vessels were then covered with transparent plastic hoods until the plants had taken root. This cover ensured uniform germination of the test plants (to the extent that this was not impaired by the chemicals), and prevented readily volatile substances from evaporating.
(§2) For postemergence treatment, the plants were first grown to a height of from 3 to 10 cm, depending on their habit, before treated. Hoods were not placed on the pots. The experiments were set up in the greenhouse, hotter areas (25° to 40° C.) being preferred for heat-loving species, and 15° to 30° C. for plants from moderate climates. The experiments were carried out for from 4 to 6 weeks. During this period the plants were tended and their reaction to the various treatments was assessed. The following tables contain the substances investigated, the application rates in kg/ha of active ingredient, and the test plant species. Assessments were made on a 0 to 100 scale, 0 denoting no damage or normal emergence, and 100 denoting no emergence or complete destruction of at least the visible plant parts.

The subject of another data set is Stell. med. The format is in vivo.
From the text: as §1, §2

For another data set, the system named is Matric. spp. The format is in vivo.
From the text: as §1, §2

A further data set relates to Setaria spp. It is filed as in vivo.
From the text: as §1, §2

Another data set concerns Cyp. diff. The format is in vivo.
From the text: as §1, §2

Another data set concerns Amar. retro. It is filed as in vivo.
From the text: as §1, §2

For the next data set, the system named is Euph. gen. The format is in vivo.
From the text: as §1, §2

For the next data set, the system named is Alopec. myosur. The format is in vivo.
From the text: as §1, §2

A further data set has as its system Sorgh. halep. It is filed as in vivo.
From the text: as §1, §2

Another data set deals with Glyc. max. The format is in vivo, Glycine max.
From the text: as §1, §2

The test system of a further data set is Gossyp. hirs. The format is in vivo, Gosspyium hirsutum.
From the text: as §1, §2

A further data set relates to Zea mays. It is filed as in vivo.
From the text: as §1, §2

The test system of the next data set is Sorgh. bicol. The format is in vivo, Sorghum bicolor.
From the text: as §1, §2

Another data set deals with Beta vulg. The format is in vivo, Beta vulgaris.
From the text: as §1, §2

A further data set concerns Bromus spp. It is filed as in vivo.
From the text: as §1, §2

The next data set has as its system Solanum nigrum. It is filed as in vivo.
From the text: as §1, §2

A further data set deals with Cyper. escul. The format is in vivo, Cyperus esculentus.
From the text: as §1, §2

Consider 10 molecules from patent publication US4593104A, “2-halo-N-(azole-1-yl-methyl)-substituted acetanilides” (BASF Aktiengesellschaft, priority 1976, dated 1986).

As for `Cc1ccc(C)c(N(Cn2cccn2)C(=O)CCl)c1C` [Compound 14], the “% damage” value in the data set on Echin. c.g. (0.25 kg/ha) came out at 100%; with Echin. c.g. (0.5 kg/ha), 100%; in the data set on Echin. c.g. (1.0 kg/ha) it was 100%; in the data set on Stell. med. (0.25 kg/ha), 90%; with Stell. med. (0.5 kg/ha) it was 100%; with Stell. med. (1.0 kg/ha), 100%. The “% damage” value with Matric. spp. (0.25 kg/ha) is 80%; with Matric. spp. (0.5 kg/ha) it was 100%; in the data set on Matric. spp. (1.0 kg/ha), 100%; in the data set on Setaria spp. (0.25 kg/ha), 100%; in the data set on Setaria spp. (0.5 kg/ha) it was 100%; with Setaria spp. (1.0 kg/ha), 100%. Also, the “% damage” value with Cyp. diff. (0.25 kg/ha), with Cyp. diff. (0.5 kg/ha), in the data set with Cyp. diff. (1.0 kg/ha), with Amar. retro. (0.25 kg/ha), in the data set on Amar. retro. (0.5 kg/ha) and with Amar. retro. (1.0 kg/ha) was 100% throughout. Also, the “% damage” value was found to be 80% in the data set with Euph. gen. (0.25 kg/ha); 95% in the data set on Euph. gen. (0.5 kg/ha); 95% in the data set with Euph. gen. (1.0 kg/ha); 95% in the data set with Alopec. myosur. (0.25 kg/ha); 100% in the data set on Alopec. myosur. (0.5 kg/ha); 100% with Alopec. myosur. (1.0 kg/ha). Besides, the “% damage” value with Sorgh. halep. (0.25 kg/ha) amounted to 95%; in the data set on Sorgh. halep. (0.5 kg/ha), 95%; with Sorgh. halep. (1.0 kg/ha), 100%; in the data set on Glyc. max (0.25 kg/ha), 10%; in the data set with Glyc. max (0.5 kg/ha), 10%; with Glyc. max (1.0 kg/ha), 20%. The entries for the “% damage” value with Gossyp. hirs. (0.25 kg/ha), with Gossyp. hirs. (0.5 kg/ha) and with Gossyp. hirs. (1.0 kg/ha) were 0%, 0% and 15%, respectively.

`CCc1ccccc1N(Cn1ccc(C)n1)C(=O)CCl` [Compound 69]: the “% damage” value stood at 80% with Setaria spp. (0.5 kg/ha); 95% with Amar. retro. (0.5 kg/ha); 100% in the data set on Alopec. myosur. (0.5 kg/ha); 0% in the data set with Zea mays (0.5 kg/ha); 20% in the data set on Glyc. max (0.5 kg/ha); 10% in the data set with Sorgh. bicol. (0.5 kg/ha). Further, the “% damage” value in the data set on Beta vulg. (0.5 kg/ha) came to 20%.

On to `Cc1cccc(C)c1N(Cn1nc(C)c(Cl)c1C)C(=O)CCl` [Compound 106], for which the “% damage” value with Setaria spp. (1.0 kg/ha) was found to be 90%; in the data set on Setaria spp. (2.0 kg/ha), 95%; in the data set on Amar. retro. (1.0 kg/ha) it was 95%; in the data set on Amar. retro. (2.0 kg/ha), 95%; in the data set on Alopec. myosur. (1.0 kg/ha), 100%; in the data set with Alopec. myosur. (2.0 kg/ha), 100%. Moreover, the “% damage” value in the data set on Zea mays (1.0 kg/ha) is listed as 15%; in the data set on Zea mays (2.0 kg/ha), 50%; with Glyc. max (1.0 kg/ha), 10%; with Glyc. max (2.0 kg/ha) it was 10%; with Sorgh. bicol. (1.0 kg/ha), 70%; in the data set with Sorgh. bicol. (2.0 kg/ha), 70%. Also, the “% damage” value in the data set with Beta vulg. (1.0 kg/ha) and in the data set on Beta vulg. (2.0 kg/ha) was 10% in each case.

Regarding `Cc1cnn(CN(C(=O)CCl)c2c(C)cccc2C)c1`, the “% damage” value in the data set with Echin. c.g. (0.5 kg/ha) came to 98%; in the data set with Echin. c.g. (1.0 kg/ha), 98%; in the data set with Matric. spp. (0.5 kg/ha) it was 100%; with Matric. spp. (1.0 kg/ha), 100%; with Setaria spp. (0.5 kg/ha) it was 92%; in the data set with Setaria spp. (1.0 kg/ha), 100%. The “% damage” value in the data set on Alopec. myosur. (0.5 kg/ha) was found to be 90%; in the data set with Alopec. myosur. (1.0 kg/ha), 95%; in the data set with Bromus spp. (0.5 kg/ha) it was 95%; with Bromus spp. (1.0 kg/ha) it was 95%; in the data set on Glyc. max (0.5 kg/ha), 0%; in the data set on Glyc. max (1.0 kg/ha) it was 10%. The “% damage” value with Beta vulg. (0.5 kg/ha) and with Beta vulg. (1.0 kg/ha) was 0% in each case.

As to `CCc1cccc(CC)c1N(Cn1cncn1)C(=O)CCl` [Compound 130], the “% damage” value in the data set with Echin. c.g. (0.5 kg/ha) is 95%; with Echin. c.g. (1.0 kg/ha), 100%; in the data set on Echin. c.g. (2.0 kg/ha), 100%; in the data set on Solanum nigrum (0.5 kg/ha) it was 100%; in the data set with Solanum nigrum (1.0 kg/ha) it was 100%; in the data set with Solanum nigrum (2.0 kg/ha), 100%. In addition, the “% damage” value is listed as 85% in the data set with Setaria spp. (0.5 kg/ha); 95% with Setaria spp. (1.0 kg/ha); 100% in the data set with Setaria spp. (2.0 kg/ha); 95% in the data set on Amar. retro. (0.5 kg/ha); 100% with Amar. retro. (1.0 kg/ha); 100% in the data set with Amar. retro. (2.0 kg/ha). Besides, the “% damage” value with Euph. gen. (0.5 kg/ha) was 60%; in the data set with Euph. gen. (1.0 kg/ha), 60%; in the data set on Euph. gen. (2.0 kg/ha), 100%; with Glyc. max (0.5 kg/ha), 20%; in the data set with Glyc. max (1.0 kg/ha), 20%; in the data set on Glyc. max (2.0 kg/ha), 20%. The “% damage” value in the data set on Cyper. escul. (0.5 kg/ha) is given as 40%; in the data set on Cyper. escul. (1.0 kg/ha) it was 70%; with Cyper. escul. (2.0 kg/ha), 80%; in the data set with Gossyp. hirs. (0.5 kg/ha), 20%; in the data set with Gossyp. hirs. (1.0 kg/ha), 30%; with Gossyp. hirs. (2.0 kg/ha) it was 30%.

For the molecule `CCc1cccc(C)c1N(Cn1nc(C)c(Cl)c1C)C(=O)CCl` [Compound 107], the “% damage” value with Setaria spp. (2.0 kg/ha) worked out at 95%; in the data set on Amar. retro. (2.0 kg/ha) it was 95%; in the data set on Alopec. myosur. (2.0 kg/ha), 95%; in the data set on Zea mays (2.0 kg/ha) it was 0%; in the data set on Glyc. max (2.0 kg/ha), 0%; in the data set on Sorgh. bicol. (2.0 kg/ha), 85%. Moreover, the “% damage” value in the data set on Beta vulg. (2.0 kg/ha) worked out at 0%.

As for `Cc1ccc(C)c(N(Cn2cncn2)C(=O)CCl)c1C` [Compound 136], the “% damage” value with Echin. c.g. (0.5 kg/ha) was determined as 95%; with Echin. c.g. (1.0 kg/ha) it was 95%; in the data set on Stell. med. (0.5 kg/ha), 30%; in the data set with Stell. med. (1.0 kg/ha), 80%; with Matric. spp. (0.5 kg/ha), 50%; with Matric. spp. (1.0 kg/ha), 90%. The “% damage” value in the data set with Setaria spp. (0.5 kg/ha) was 90%; with Setaria spp. (1.0 kg/ha), 100%; in the data set with Cyp. diff. (0.5 kg/ha), 90%; in the data set with Cyp. diff. (1.0 kg/ha), 90%; with Amar. retro. (0.5 kg/ha), 70%; in the data set on Amar. retro. (1.0 kg/ha) it was 70%. The “% damage” value was 45% in the data set on Euph. gen. (0.5 kg/ha); 65% with Euph. gen. (1.0 kg/ha); 50% with Alopec. myosur. (0.5 kg/ha); 90% in the data set with Alopec. myosur. (1.0 kg/ha); 80% in the data set on Sorgh. halep. (0.5 kg/ha); 80% in the data set with Sorgh. halep. (1.0 kg/ha). Also, the “% damage” value with Gossyp. hirs. (0.5 kg/ha) and in the data set on Gossyp. hirs. (1.0 kg/ha) was 10% throughout.

As for `Cc1cc(C)n(CN(C(=O)CCl)c2ccccc2)n1` [Compound 34], the “% damage” value in the data set on Echin. c.g. (1.0 kg/ha) was 90%; with Echin. c.g. (2.0 kg/ha), 90%; in the data set on Setaria spp. (1.0 kg/ha), 80%; in the data set with Setaria spp. (2.0 kg/ha), 95%; in the data set with Amar. retro. (1.0 kg/ha), 100%; with Amar. retro. (2.0 kg/ha) it was 100%. The “% damage” value with Zea mays (1.0 kg/ha) is listed as 0%; in the data set on Zea mays (2.0 kg/ha), 0%; in the data set with Bromus spp. (1.0 kg/ha), 95%; with Bromus spp. (2.0 kg/ha), 95%; in the data set with Glyc. max (1.0 kg/ha), 0%; in the data set with Glyc. max (2.0 kg/ha), 0%. Moreover, the figures for the “% damage” value with Sorgh. bicol. (1.0 kg/ha) and in the data set with Sorgh. bicol. (2.0 kg/ha) were 0% and 10%, respectively.

For the molecule `Cc1ccc(Cl)cc1N(Cn1cccn1)C(=O)CCl` [Compound 24], the “% damage” value with Setaria spp. (2.0 kg/ha) is recorded as 85%; with Amar. retro. (2.0 kg/ha), 95%; in the data set on Alopec. myosur. (2.0 kg/ha), 100%; in the data set on Zea mays (2.0 kg/ha), 0%; in the data set on Glyc. max (2.0 kg/ha), 10%; with Sorgh. bicol. (2.0 kg/ha) it was 10%. The “% damage” value in the data set on Beta vulg. (2.0 kg/ha) came out at 60%.

For the molecule `Cc1ccn(CN(C(=O)CCl)c2ccccc2C(C)C)n1` [Compound 72], the “% damage” value was 90% in the data set on Setaria spp. (1.0 kg/ha); 95% in the data set with Setaria spp. (2.0 kg/ha); 95% with Amar. retro. (1.0 kg/ha); 95% in the data set with Amar. retro. (2.0 kg/ha); 100% in the data set with Alopec. myosur. (1.0 kg/ha); 100% in the data set on Alopec. myosur. (2.0 kg/ha). In addition, the “% damage” value was determined as 0% in the data set on Zea mays (1.0 kg/ha); 10% in the data set on Zea mays (2.0 kg/ha); 10% in the data set on Glyc. max (1.0 kg/ha); 20% with Glyc. max (2.0 kg/ha); 20% in the data set with Sorgh. bicol. (1.0 kg/ha); 40% in the data set with Sorgh. bicol. (2.0 kg/ha). In addition, the “% damage” value in the data set on Beta vulg. (1.0 kg/ha) and in the data set on Beta vulg. (2.0 kg/ha) was 10% in each case.
